Data set [1] can be described thus: Pharmacokinetics study in mice. It counts as in vivo. The settings on record: Balb/c mice, male, oral 20 mg/kg suspended in olive oil, LC-MS/MS; for AUC / Cmax / half-life: mouse, plasma; for AUC: read-out: AUC (area under the plasma drug concentration-time curve); for Cmax: read-out: Cmax (maximum plasma concentration); for half-life: read-out: t1/2 (plasma half-life) (converted). The protocol: Balb/c mice (male, 7 to 8-week old) were used (3 or more mice per group). Each test compound suspended in olive oil was orally administered at 20 mg/kg, and blood was collected from the jugular vein after 2, 6, and 24 hours, or after 2, 4, 6, 8, 24, and 48 hours. The plasma drug concentration was measured by using a liquid chromatograph/mass spectrometry/mass spectrometry (LC-MS/MS). In addition, pharmacokinetics parameters were obtained from change in the obtained plasma concentration.

Data set [2] concerns HCV (Con1 Strain) replicon. Description: microbe, parasite or virus in culture. It counts as cell-based, hepatitis C virus (HCV) Con1 strain, in Huh7 cells. The settings on record: read-out: IC50 Value (50% growth inhibitory concentration). The source says: The compounds represented by the formula (I) were subjected to an HCV replicon assay and a cytotoxicity test.
In order to quantify the degree of HCV virus proliferation, a material was constructed by introducing a luciferase gene as a reporter gene into the genomic gene sequence of HCV Cont strain. The luciferase gene was introduced in the form of fusion with a neomycin-resistant gene, immediately after the IRES (Internal Ribosome Entry Site) of the HCV gene according to the method of Krieger et al., (J. Virol. 75: 4614 (2001)). The constructed RNA was introduced into Huh7 cells by electroporation, and isolated as G418 resistant clone.
The HCV replicon cells comprising the luciferase gene and the neomycin resistance gene were suspended in a culture liquid [D-MEM (SIGMA, D6046) containing 10% of fetal bovine serum (EQUITECH-BIO, INC.)], and seeded onto 96-well plates at 5000 to 8100 cells/well. Test compounds were added at various concentrations, and the cells were cultured under 5% CO2 at 37° C. for 3 days. For adding the test compounds, solutions of the test compounds dissolved in dimethyl sulfoxide (DMSO) were used, and diluted with the culture liquid to appropriate concentrations before use. The experiment was conducted with the final concentrations of DMSO used for dissolving the test compounds being 0.4% during the culturing of the replicon cells. To wells to which no test compound was added, DMSO was added with a final concentration of 0.4%.
Assay plates were prepared for two systems; one of the assays was conducted on a white plate, and the other was conducted on a clear plate. After the culturing for treatments with the test compounds was completed, the white plate was subjected to chemiluminescence measurement by using a Steady-Glo Luciferase Assay System (Promega, E2520) in order to detect effects on HCV replicon proliferation. A EnVision multilabel counter (PerkinElmer 2102) was used for the chemiluminescence measurement. While the value obtained when no test compound was added was taken as 0% inhibition, the inhibitory ratios by the treatments with the agents were calculated.
Regarding the HCV replicon assay, IC50s (50% growth inhibitory concentrations) of the agents were calculated, with the value obtained when no agent was added being taken as 0% inhibition.

Setting [3] is: Hepatitis C virus, Huh-7, 72 h, HCV replicon cells (Huh7) with luciferase gene, cultured 3 days with test compound, 0.4% DMSO.

13 compounds from patent US20120251492A1, “TRITERPENE DERIVATIVE AND AGENT FOR PREVENTING OR TREATING CHRONIC HEPATITIS C” (MEIJI SEIKA PHARMA CO., LTD., priority 2009, published 2012) can be followed below.

Where two headings read alike, the source gives them in different places.

As to `CC1(C)C[C@@H](OCc2ccccc2)[C@]2(C)CC[C@]3(C)C(=CCC4[C@@]5(C)CC[C@H](O)[C@](C)(C(=O)O)C5CC[C@]43C)[C@@H]2C1` (stereo partly drawn) [Compound 12, 22β-benzyloxyolean-12-ene-3β-hydroxy-24-oic acid], in data set [1], the AUC stood at 74700 ± 11000 ng·h/mL, the Cmax was determined as 4800 ± 1100 ng/mL and the half-life was 11.9 ± 2.7 h. In addition, the IC50 in data set [2] (setting [3]) was found to be 5.54 µM.

For `CC1(C)C[C@@H](OCc2ccc(CN3CCOCC3)cc2)[C@]2(C)CC[C@]3(C)C(=CCC4[C@@]5(C)CC[C@H](O)[C@](C)(CO)C5CC[C@]43C)[C@@H]2C1` (stereo partly drawn) [Compound 9, 22β-(4-(4-morpholylmethyl)benzyloxy)olean-12-ene-3β,24-diol], the IC50 in data set [2] (setting [3]) was 9.13 µM.

On to `CC1(C)C[C@@H](OCc2ccc(C=O)cc2)[C@]2(C)CC[C@]3(C)C(=CCC4[C@@]5(C)CC[C@H](O)[C@](C)(CO)C5CC[C@]43C)[C@@H]2C1` (stereo partly drawn) [Compound 4, 22β-(4-formylbenzyloxy)olean-12-ene-3β,24-diol], for which the IC50 in data set [2] (setting [3]) was 3.59 µM.

Take `CC1(C)C[C@@H](OCc2ccc(CO)cc2)[C@]2(C)CC[C@]3(C)C(=CCC4[C@@]5(C)CC[C@H](O)[C@](C)(CO)C5CC[C@]43C)[C@@H]2C1` (stereo partly drawn) [Compound 3, 22β-(4-hydroxymethylbenzyloxy)olean-12-ene-3β,24-diol]: in data set [2] (Hepatitis C virus, Huh-7, 72 h), the IC50 turned out to be 1.56 µM.

On to `CO[C@@H]1CC(C)(C)CC2C3=CCC4[C@@]5(C)CC[C@H](O)[C@](C)(C(=O)O)C5CC[C@@]4(C)[C@]3(C)CC[C@]21C` (stereo partly drawn) [Compound 14, 3β-hydroxy-22β-methoxyolean-12-en-24-oic acid], for which, in data set [1], the AUC is 81100 ± 18300 ng·h/mL, the Cmax was determined as 4800 ± 1100 ng/mL and the half-life is 13.9 ± 1 h. In addition, the IC50 in data set [2] (setting [3]) amounted to 5.57 µM.

Regarding `CC1(C)C[C@@H](OCCCO)[C@]2(C)CC[C@]3(C)C(=CCC4[C@@]5(C)CC[C@H](O)[C@](C)(CO)C5CC[C@]43C)[C@@H]2C1` (stereo partly drawn) [Compound 7, 22β-(3-hydroxypropoxy)olean-12-ene-3β,24-diol], the IC50 in data set [2] (setting [3]) amounted to 5.32 µM.

In the case of `CC1(C)C[C@@H](OCCCOc2ccc(C(=O)O)cc2)[C@]2(C)CC[C@]3(C)C(=CCC4[C@@]5(C)CC[C@H](O)[C@](C)(CO)C5CC[C@]43C)[C@@H]2C1` (stereo partly drawn) [Compound 8, 22β-(3-(4-carboxyphenyl)oxypropoxy)olean-12-ene-3β,24-diol], the IC50 in data set [2] (setting [3]) was determined as 6.99 µM.

Consider `C=CCO[C@@H]1CC(C)(C)C[C@H]2C3=CCC4[C@@]5(C)CC[C@H](O)[C@](C)(C(=O)O)C5CC[C@@]4(C)[C@]3(C)CC[C@@]12C` (stereo partly drawn) [Compound 13, 22β-allyloxyolean-12-ene-3β-hydroxy-24-oic acid], for which, in data set [1], the AUC is 74900 ± 16300 ng·h/mL, the Cmax was 4800 ± 1500 ng/mL and the half-life was 13 ± 5.5 h. Further, the IC50 in data set [2] (setting [3]) came out at 7.05 µM.

With `CO[C@@H]1CC(C)(C)C[C@H]2C3=CC[C@@H]4[C@@]5(C)CC[C@H](O)[C@](C)(CO)[C@@H]5CC[C@@]4(C)[C@]3(C)CC[C@@]12C` [Compound 17, 22β-methoxyolean-12-ene-3β,24-diol, reference compound], in data set [1], the “AUC (area under the plasma drug concentration-time curve)” value is 35600 ± 9700 ng·h/mL, the “Cmax (maximum plasma concentration)” value stood at 2600 ± 700 ng/mL and the “t1/2 (plasma half-life)” value stood at 7.4 ± 0.4 h. For the same compound, in data set [2] (HCV replicon cells (Huh7) with luciferase gene, cultured 3 days with test compound, 0.4% DMSO), the IC50 is more than 20 µM.

Regarding `CC1(C)C[C@@H](OCc2ccc(CNc3ccccc3)cc2)[C@]2(C)CC[C@]3(C)C(=CCC4[C@@]5(C)CC[C@H](O)[C@](C)(CO)C5CC[C@]43C)[C@@H]2C1` (stereo partly drawn) [Compound 11, 22β-(4-phenylaminomethylbenzyloxy)olean-12-ene-3β,24-diol], the IC50 in data set [2] (setting [3]) came to 13 µM.

For `C#CCO[C@@H]1CC(C)(C)C[C@H]2C3=CCC4[C@@]5(C)CC[C@H](O)[C@](C)(CO)C5CC[C@@]4(C)[C@]3(C)CC[C@@]12C` (stereo partly drawn) [Compound 2, 22β-(2-propynyloxy)olean-12-ene-3β,24-diol], in data set [1], the AUC is 44700 ± 16300 ng·h/mL, the Cmax came out at 2800 ± 1000 ng/mL and the half-life was 10 ± 1.2 h. Also, the IC50 in data set [2] (setting [3]) came to 5.73 µM.

As for `CN(C)Cc1ccc(CO[C@@H]2CC(C)(C)C[C@H]3C4=CCC5[C@@]6(C)CC[C@H](O)[C@](C)(CO)C6CC[C@@]5(C)[C@]4(C)CC[C@@]23C)cc1` (stereo partly drawn) [Compound 10, 22β-(4-dimethylaminomethylbenzyloxy)olean-12-ene-3β,24-diol], the IC50 in data set [2] (setting [3]) worked out at 3.68 µM.

`CC1(C)C[C@@H](OCc2ccc(C(=O)O)cc2)[C@]2(C)CC[C@]3(C)C(=CCC4[C@@]5(C)CC[C@H](O)[C@](C)(CO)C5CC[C@]43C)[C@@H]2C1` (stereo partly drawn) [Compound 1, 22β-(4-carboxybenzyloxy)olean-12-ene-3β,24-diol]: the IC50 in data set [2] (setting [3]) came out at 13.5 µM.
